Laboratory results as given in patent US20110306606A1, “NOVEL 2,6-SUBSTITUTED-3-NITROPYRIDINE DERIVATIVE, METHOD FOR PREPARING SAME, AND PHARMACEUTICAL COMPOSITION INCLUDING SAME” (priority 2008, published 2011).
Where two headings read alike, the source gives them in different places.

Legend:
[1] = test system: formation of osteoclasts in co-culture of bone marrow cells and osteoblasts; assay: Osteoclastogenesis inhibition via co-culture system (TRAP staining); format: cell-based, mice; details: 1 μM compound, 7 days co-culture, TRAP-positive multinucleated osteoclasts vs vehicle control; for inhibition at 1 µM: Mus musculus, Osteoclast, 168 h
Experimental: Osteoclastogenesis inhibitory effects of the compounds of the present invention were evaluated via a co-culture system (Reference: Endocrinology 137(1996), 2187 to 2190, E. Jimi et al.). A specific experimental method is as follows.
1) Preparation of Bone Marrow Cells and Osteoblasts
Femora and tibia were aseptically dissected from 6 to 8-week-old male ddY mice to harvest bone marrow cells by a conventional method using a syringe. In brief, tissues were removed from the dissected bone, the bone ends were cut off with scissors, and the bone marrow was isolated by pushing a medium-containing syringe (23G) against the one end of the cut bone. The isolated bone marrow was subjected to repeated piston movement of a syringe such that single cells were obtained (Reference: Endocrinology 123(1988), 2600 to 2602, Takahashi et al.). After removal of red blood cells within the bone marrow, the bone marrow cells recovered by centrifugation were placed in an α-MEM supplemented with 10% fetal bovine serum (FBS), followed by counting of nucleated cells and then were immediately used for a co-culture system.
2) Osteoclastogenesis Inhibition Experiment Via Co-Culture System
As the medium used for a co-culture system, a differentiation medium with the addition of differentiation factors 1α,25-dihydroxyvitamin D3 (10^−8M) and dexamethasone (10^−8M) to a-MEM supplemented with 10% FBS was used for the induction of osteoclastogenesis. First, the compounds dissolved in dimethyl sulfoxide (DMSO) at a concentration of 1 mM were diluted to 2 μM using the above-mentioned differentiation medium. As a vehicle control group, 0.2% (v/v) DMSO was added to the medium. 100 μL/well of each medium was added to 96-well plates. In addition, the above prepared bone marrow cells and osteoblasts were plated onto 96-well plates at a density of 1×10^5 cells/50 μL/well and 3×10^3 cells/50 μL/well, respectively. The total volume/well was 200 μL and the final compound concentration was 1 μM. The control group was 0.1% DMSO. The cells were cultured with exchange of the culture media with fresh media containing differentiation factors and test materials at an interval of 2 to 3 days.
7 days after culturing of cells, the formation of multinucleated osteoclasts was confirmed by microscopic examination, the medium was removed from the wells and then the cells were fixed in a 10% phosphate-buffered formalin solution. The degree of formation of mature osteoclasts was measured taking advantage of the characteristics of osteoclasts showing a positive reaction to a tartrate-resistant acid phosphatase (TRAP) staining solution. The TRAP staining solution was prepared in a manner such that naphthol AS-MS phosphate as a substrate and a coloring agent (Fast Red Violet LB salt) were dissolved in N,N-dimethylformamide, and a 0.1N NaHCO3 buffer solution containing 50 mM of tartaric acid was added thereto. Among the TRAP-positive cells under a light microscope, multinucleated osteoclasts having 6 to 7 nuclei were regarded as mature osteoclasts.
The degree of inhibition of osteoclastogenesis was calculated according to the following equation 1. The results are summarized in Table 27 below (Experiments were carried out for 4 wells/experimental group (n=4), and the results are given in terms of mean±standard deviation)
Inhibition of osteoclastogenesis(%)=(1−numbers of osteoclasts observed in experimental group/numbers of osteoclasts observed in vehicle control group)×100(%) [Equation 1]

[2] = test system: Osteoblasts (Calvarial cells); details: ICR, mouse, 72 h, 1 μM
[3] = test system: Osteoblasts (Calvarial cells); assay: Cytotoxicity test (MTT); details: 1 μM compound, 72 hours, in comparison with vehicle control
[4] = test system: Osteoblasts (Calvarial cells); assay: Alkaline phosphatase (ALP) activity in osteoblasts (Calvarial cells); format: cell-based, mice; details: 1 μM compound, 3 days
Experimental: Differentiation and activity of osteoblasts were indirectly evaluated by measuring an ALP activity having a close relationship with osteogenesis.
Osteoblasts (Calvarial cells) prepared in Experimental Example 1 and MC3T3-E1 cells (available from RIKEN Cell Bank, Japan) were collected in α-MEM supplemented with 10% FBS, followed by cell counting. The cells were dispensed into 24-well cultureware at a density of 2×10^4 cells/well. After culturing of the cells for 24 hours, the culture media were discarded and replaced with fresh media in which test compounds were diluted to a concentration of 1 μM (1 mL/well). In addition, the vehicle control group containing 0.1% DMSO was also treated. […] When the experiment was terminated, the supernatant was removed and the cells were washed three times with cold phosphate buffer at 4°. 0.2% Triton X-100 was added to the washed cells which were then subjected to three cycles of freezing at −70° and thawing at room temperature for the complete lysis of cells. The cell extracts were pooled and centrifuged to collect the cell supernatant which was used for the measurement of ALP activity and proteins. The protein concentration was measured using a BCA assay kit (manufactured by Sigma-Aldrich). For the measurement of ALP activity, p-nitrophenylphosphate was added to the cell supernatant which was then incubated at 37° for 30 minutes, and the reaction was terminated with the addition of 50 μL of 0.2N sodium hydroxide. The standard curve was plotted at the absorbance of 405 nm using p-nitrophenol as a standard material and then the absorbance of test materials thus reacted was measured to determine the production amount of p-nitrophenol.
The ALP activity was calculated by dividing the amount of p-nitrophenol produced from each test material by the protein amount and the reaction time. Therefore, the unit of ALP activity was given in terms of p-nitrophenol/μg protein/min. The results are given in Tables 28-1 and 28-2 where the ALP activity unit of each test material was given in terms of % change through the comparison between the individual test materials and the vehicle control group.

SMILES | inhibition at 1 µM [1] | Cell viability (%) Calvarial cell [2] | Cell viability (%) Calvarial cell [3] | ALP activity (1 μM, % of Control) Calvarial cell [4] | Osteoclastogenesis inhibition (%) 1 μM [1]
CCCCc1ccc(Nc2nc(NCCCn3ccnc3)ccc2[N+](=O)[O-])cc1 [Compound 56, 2-[4-(n-butyl)phenylamino]-6-[(3-imidazol-1-yl)propylamino]-3-nitropyridine] | 99% | 104% |  |  | 
Nc1ccc(Nc2nc(N3CCOCC3)ccc2[N+](=O)[O-])cc1 [Compound 64, 2-[4-(amino)phenylamino]-6-morpholino-3-nitropyridine] | 65% | 102% |  |  | 
Nc1ccc(Nc2nc(NCc3ccncc3)ccc2[N+](=O)[O-])cc1 [Compound 66, 2-[4-(amino)phenylamino]-6-[(4-pyridyl)methylamino]-3-nitropyridine] | 65% | 107% |  |  | 
CC(C)c1nccn1-c1ccc([N+](=O)[O-])c(Nc2ccc(-n3ccnc3)cc2)n1 [Compound 92, 2-[4-(imidazol-1-yl)phenylamino]-6-[(2-isopropyl)imidazol-1-yl]-3-nitropyridine] | 64% | 101% |  |  | 
O=[N+]([O-])c1ccc(NCc2cccnc2)nc1Nc1ccc(-n2ccnc2)cc1 [Compound 93, 2-[4-(imidazol-1-yl)phenylamino]-6-[(3-pyridyl)methylamino]-3-nitropyridine] | 66% | 98% |  |  | 
Cc1nc(-c2ccc(Nc3nc(NCC(C)C)ccc3[N+](=O)[O-])cc2)cs1 [Compound 134, 2-[4-(2-methylthiazol-4-yl)phenylamino]-6-(isobutylamino)-3-nitropyridine] | 61% | 93% |  |  | 
CCN(CCO)c1ccc([N+](=O)[O-])c(Nc2ccc(-c3csc(C)n3)cc2)n1 [Compound 141, 2-[4-(2-methylthiazol-4-yl)phenylamino]-6-[(N-ethyl-2-hydroxy)ethylamino]-3-nitropyridine] |  |  | 102% | 129 % of Control | 82%
Cc1nc(-c2ccc(Nc3nc(N4CCNCC4)ccc3[N+](=O)[O-])cc2)cs1 [Compound 143, 2-[4-(2-methylthiazol-4-yl)phenylamino]-6-(piperazin-1-yl)-3-nitropyridine] | 99% | 85% |  |  | 
Cc1nc(-c2ccc(Nc3nc(N4CCC(N)CC4)ccc3[N+](=O)[O-])cc2)cs1 [Compound 144, 2-[4-(2-methylthiazol-4-yl)phenylamino]-6-(4-aminopiperidino)-3-nitropyridine] | 100% | 35% |  |  | 
CNc1ccc([N+](=O)[O-])c(Nc2ccc(-c3csc(C4CCCCC4)n3)cc2)n1 [Compound 151, 2-[4-(2-cyclohexylthiazol-4-yl)phenylamino]-6-(methylamino)-3-nitropyridine] | 70% | 101% |  |  | 
CC(C)Nc1ccc([N+](=O)[O-])c(Nc2ccc(-c3csc(C4CCCCC4)n3)cc2)n1 [Compound 152, 2-[4-(2-cyclohexylthiazol-4-yl)phenylamino]-6-(isopropylamino)-3-nitropyridine] | 85% | 105% |  |  | 
CC(C)CNc1ccc([N+](=O)[O-])c(Nc2ccc(-c3csc(C4CCCCC4)n3)cc2)n1 [Compound 153, 2-[4-(2-cyclohexylthiazol-4-yl)phenylamino]-6-(isobutylamino)-3-nitropyridine] | 78% | 107% |  |  | 
CC(C)(C)Nc1ccc([N+](=O)[O-])c(Nc2ccc(-c3csc(C4CCCCC4)n3)cc2)n1 [Compound 154, 2-[4-(2-cyclohexylthiazol-4-yl)phenylamino]-6-(t-butylamino)-3-nitropyridine] | 78% | 116% |  |  | 
O=[N+]([O-])c1ccc(NCc2ccncc2)nc1Nc1ccc(-c2csc(C3CCCCC3)n2)cc1 [Compound 163, 2-[4-(2-cyclohexylthiazol-4-yl)phenylamino]-6-[(4-pyridyl)methylamino]-3-nitropyridine] | 67% | 99% |  |  | 
CC(C)CNc1ccc([N+](=O)[O-])c(Nc2ccc(N3CCOCC3)c(F)c2)n1 [Compound 193, 2-[(3-fluoro-4-morpholino)phenylamino]-6-(isobutylamino)-3-nitropyridine] |  |  | 98% | 114 % of Control | 81%
CC(C)(C)Nc1ccc([N+](=O)[O-])c(Nc2ccc(N3CCOCC3)c(F)c2)n1 [Compound 199, 2-[(3-fluoro-4-morpholino)phenylamino]-6-(t-butylamino)-3-nitropyridine] |  |  | 118% | 118 % of Control | 67%
O=[N+]([O-])c1ccc(N2CCNCC2)nc1Nc1ccc(N2CCOCC2)c(F)c1 [Compound 201, 2-[(3-fluoro-4-morpholino)phenylamino]-6-(piperazin-1-yl)-3-nitropyridine] |  |  | 95% | 118 % of Control | 86%
O=[N+]([O-])c1ccc(N2CCNCC2)nc1Nc1ccc(N2CCSCC2)c(F)c1 [Compound 213, 2-[(3-fluoro-4-thiomorpholino)phenylamino]-6-(piperazin-1-yl)-3-nitropyridine] |  |  | 95% | 121 % of Control | 94%
CNc1ccc([N+](=O)[O-])c(Nc2ccc(N3CCNCC3)c(F)c2)n1 [Compound 215, 2-[(3-fluoro-4-piperazino)phenylamino]-6-(methylamino)-3-nitropyridine] |  |  | 104% | 125 % of Control | 91%
CC(C)Nc1ccc([N+](=O)[O-])c(Nc2ccc(N3CCNCC3)c(F)c2)n1 [Compound 216, 2-[(3-fluoro-4-piperazino)phenylamino]-6-(isopropylamino)-3-nitropyridine] |  |  | 92% | 112 % of Control | 93%
